Assay results: patent US12186310B2, “Antibody-drug conjugate” (DAIICHI SANKYO COMPANY, LIMITED, priority 2012, dated 2025)
Where two headings read alike, the source gives them in different places.

Columns and labels:
A375 cells = experiment: Cytotoxicity test (8) of released drug; format: cell-based; details: Homo sapiens, A-375, 144 h, read-out: IC50, cytotoxic activity against the A375 cells
Protocol: A375 cells (ATCC) were cultured in DMEM (GIBCO) containing 10% fetal bovine serum (MOREGATE) (hereinafter, referred to as a medium). The A375 cells were prepared to have a concentration of 4×10^4 cells/mL by using a medium, added at a concentration of 25 μL/well to a 96-well microplate for cell culture (CORNING) charged with […] of a medium, and cultured overnight. On the next day, each test substance diluted into 1000 nM, 200 nM, 40 nM, 8 nM, 1.6 nM, 0.32 nM, and 0.064 nM by using DMSO was added at a concentration of 0.5 μL/well to the microplate. DMSO was added at a concentration of 0.5 μL/well to test substance non-supplemented wells. The volume of the medium in each well was adjusted to 100 μL by the addition of 10 μL/well of a medium, and the cells were cultured under 5% CO2 at 37° C. for 6 days. After the culture, the microplate was taken out from the incubator and left standing at room temperature for 30 minutes. The culture solution was charged with an equal amount of CellTiter-Glo Luminescent Cell Viability Assay (Promega) and stirred. After the microplate was left standing at room temperature for 10 minutes, the amount of light emission was measured by using a plate reader. The IC50 value was calculated according to the following equation: IC50(nM)=antilog((50−d)×(LOG10b−LOG10a)/(d−c)+LOG10b) • a: Concentration a of the test substance • b: Concentration b of the test substance • c: Ratio of live cells supplemented with the test substance having the concentration a • d: Ratio of live cells supplemented with the test substance having the concentration b
The concentrations a and b establish the relation a>b crossing 50% ratio of live cells.
The survival rate of cells was calculated according to the following equation: Survival rate of cells (%)=a/b×100 • a: Average amount of light emission from the test substance-supplemented wells (n=2) • b: Average amount of light emission from the test substance non-supplemented wells (n=10)

human tumor = human tumor subcutaneously transplanted mouse model; cited from earlier work
topoisomerase I = target: T1, topoisomerase I (Homo sapiens, UniProt P11387); details: compared with SN-38 and topotecan; cited from earlier work
T1 sequence (P11387 1-765): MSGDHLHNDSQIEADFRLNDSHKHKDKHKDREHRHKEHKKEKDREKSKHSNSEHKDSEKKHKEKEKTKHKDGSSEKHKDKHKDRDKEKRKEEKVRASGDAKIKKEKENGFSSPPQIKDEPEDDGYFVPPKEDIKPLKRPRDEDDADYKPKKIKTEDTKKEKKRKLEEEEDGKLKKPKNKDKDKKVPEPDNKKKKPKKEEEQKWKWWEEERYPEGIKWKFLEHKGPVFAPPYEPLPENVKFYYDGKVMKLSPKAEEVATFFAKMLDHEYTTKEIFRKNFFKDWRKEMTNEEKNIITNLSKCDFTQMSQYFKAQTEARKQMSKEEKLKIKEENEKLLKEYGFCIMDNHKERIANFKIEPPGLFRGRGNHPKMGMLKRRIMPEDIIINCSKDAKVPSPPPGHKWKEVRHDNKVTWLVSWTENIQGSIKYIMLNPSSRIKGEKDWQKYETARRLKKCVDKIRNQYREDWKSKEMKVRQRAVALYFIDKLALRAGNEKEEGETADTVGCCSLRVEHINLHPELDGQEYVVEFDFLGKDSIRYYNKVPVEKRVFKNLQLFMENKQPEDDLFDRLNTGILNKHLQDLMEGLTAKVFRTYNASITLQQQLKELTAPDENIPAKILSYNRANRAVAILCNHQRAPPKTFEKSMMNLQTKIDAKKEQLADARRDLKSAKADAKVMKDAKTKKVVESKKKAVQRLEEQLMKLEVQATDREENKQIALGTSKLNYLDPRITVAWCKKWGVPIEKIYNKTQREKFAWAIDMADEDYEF

various cancer cells = details: against various cancer cells; cited from earlier work
[1] = Self-degradation of released drug derivative with aminal structure; format: physicochemical; details: undergoes a self-degradation to release HO—CH2—C(═O)—(NH-DX)
[2] = system: Human non-small cell lung cancer line Calu-6 cells; experiment: Antitumor test (3), subcutaneously transplanted Calu-6; format: in vivo, mouse; details: Calu-6 subcutaneous, female nude mice; 10 mg/kg intravenously at Days 11, 18, and 25 (qw×3); FIG. 19
Protocol: Assay and calculation expression: In all studies, the major axis and minor axis of tumor were measured twice a week by using an electronic digital caliper (CD-15C, Mitutoyo Corp.), and the tumor volume (mm^3) was calculated. The calculation expression is as shown below. Tumor volume (mm^3)=½×Major axis (mm)×[Minor axis (mm)]^2
Human non-small cell lung cancer line Calu-6 cells were purchased from ATCC (American Type Culture Collection). 5×10^6 cells suspended in physiological saline were subcutaneously transplanted to the right abdomen of each female nude mouse (Day 0), and the mice were randomly grouped at Day 11.

[3] = system: Human melanoma line A375 cells; experiment: Antitumor test (1), subcutaneously transplanted A375; format: in vivo, mouse; details: A375 subcutaneous, female nude mice; 10 mg/kg intravenously at Days 11, 18, and 25; FIG. 17
Protocol: Mouse: 5- to 6-week-old female BALB/c nude mice (Charles River Laboratories Japan, Inc.) were acclimatized for 4 to 7 days under SPF conditions before use in the experiment. The mice were fed with sterilized solid feed (FR-2, Funabashi Farms Co., Ltd) and given sterilized tap water (prepared by the addition of 5 to 15 ppm sodium hypochlorite solution). Assay and calculation expression: In all studies, the major axis and minor axis of tumor were measured twice a week by using an electronic digital caliper (CD-15C, Mitutoyo Corp.), and the tumor volume (mm^3) was calculated. The calculation expression is as shown below. Tumor volume (mm^3)=1⁄2×Major axis (mm)×[Minor axis (mm)]^2 All of the antibody-drug conjugates were diluted with physiological saline (Otsuka Pharmaceutical Factory, Inc.) and used at a volume of 10 mL/kg for intravenous administration to the tail of each mouse. Human melanoma line A375 cells were purchased from ATCC (American Type Culture Collection). 8×10^6 cells suspended in physiological saline were subcutaneously transplanted to the right abdomen of each female nude mouse (Day 0), and the mice were randomly grouped at Day 11.

CC[C@@]1(O)C(=O)OCc2c1cc1n(c2=O)Cc2c-1nc1cc(F)c(C)c3c1c2[C@@H](NC(=O)COCCN)CC3 [Example (42), 2-(2-Aminoethoxy)-N-[(1S,9S)-9-ethyl-5-fluoro-9-hydroxy-4-methyl-10,13-dioxo-2,3,9,10,13,15-hexahydro-1H,12H-benzo[de]pyrano[3′,4′:6,7]indolizino[1,2-b]quinolin-1-yl]acetamide]
IC50 (A375 cells): 1 to 10 nM

CC[C@@]1(O)C(=O)OCc2c1cc1n(c2=O)Cc2c-1nc1cc(F)c(C)c3c1c2[C@@H](NC(=O)CCCN)CC3 [Example (1), 4-Amino-N-[(1S,9S)-9-ethyl-5-fluoro-9-hydroxy-4-methyl-10,13-dioxo-2,3,9,10,13,15-hexahydro-1H,12H-benzo[de]pyrano[3′,4′:6,7]indolizino[1,2-b]quinolin-1-yl]butanamide]
IC50 (A375 cells): 10 to 100 nM

CC[C@@]1(O)C(=O)OCc2c1cc1n(c2=O)Cc2c-1nc1cc(F)c(C)c3c1c2[C@@H](N)CC3 [exatecan, (1S,9S)-1-amino-9-ethyl-5-fluoro-2,3-dihydro-9-hydroxy-4-methyl-1H,12H-benzo[de]pyrano[3′,4′:6,7]indolizino[1,2-b]quinolin-10,13(9H,15H)-dione]
IC50 (A375 cells; released drug, cultured 6 days, CellTiter-Glo): 0.1 to 1 nM | antitumor effect (human tumor): potent antitumor effect | inhibitory activity on topoisomerase I (topoisomerase I): higher than SN-38 | in vitro cytocidal activity (various cancer cells): higher in vitro cytocidal activity

CC[C@@]1(O)C(=O)OCc2c1cc1n(c2=O)Cc2c-1nc1cc(F)c(C)c3c1c2[C@@H](NC(=O)CO)CC3 [Example (75), N-[(1S,9S)-9-ethyl-5-fluoro-9-hydroxy-4-methyl-10,13-dioxo-2,3,9,10,13,15-hexahydro-1H,12H-benzo[de]pyrano[3′,4′:6,7]indolizino[1,2-b]quinolin-1-yl]-2-hydroxyacetamide]
IC50 (A375 cells): 0.1 to 1 nM

CCC1(O)C(=O)OCc2c1cc1n(c2=O)Cc2c-1nc1cc(F)c(C)c3c1c2C(NC(=O)COCN)CC3 (stereo not shown) [NH2—CH2—O—CH2—C(═O)—(NH-DX)]
stability of the aminal structure in the molecule [1]: unstable

B1: M30-H1-L4P antibody: M30-H1-L4 antibody with the modification of a glycan regulated by defucosylation (antibody, chains of the INN, looked up, V domains shown)
VH: QVQLVQSGAEVKKPGSSVKVSCKASGYTFTNYVMHWVRQAPGQGLEWMGYINPYNDDVKYNEKFKGRVTITADESTSTAYMELSSLRSEDTAVYYCARWGYYGSPLYYFDYWGQGTLVTVSS
VL: EIVLTQSPATLSLSPGERATLSCRASSRLIYMHWYQQKPGQAPRPLIYATSNLASGIPARFSGSGSGTDFTLTISSLEPEDFAVYYCQQWNSNPPTFGQGTKVEIK
modifications: defucosylated
notes: M30-H1-L4 antibody with the modification of a glycan regulated by defucosylation
tumor volume [2]: progression of tumor growth | tumor volume [3]: progression of tumor growth
